ChEMBL document CHEMBL3272338, “Bis-basic-substituted polycyclic aromatic compounds. A new class of antiviral agents. 8. Bis-basic derivatives of carbazole, dibenzofuran, and dibenzothiophene” (1977)
Activity calls are given as the source filed them. No cut-off for these calls is given here.

Key:
[1] = system: Mus musculus; assay: Induction of interferon induction in po dosed mouse serum; format: functional, organism-based
[2] = system: Mus musculus; assay: Induction of interferon induction in sc dosed mouse serum; format: functional, organism-based
[3] = system: Human alphaherpesvirus 1; assay: In vitro antiviral activity against Herpesvirus hominis type 1 infected in African green monkey Vero cells assessed as log reduction of virus titer by cytopathologic assay (reference value: 5); format: functional
[4] = system: Human alphaherpesvirus 1; assay: (§1) In vivo antiviral activity against Herpesvirus hominis type 1 infected in hairless mouse assessed as decrease in lesion score administered topically at 2, 4 and 6 hrs after virus inoculation followed by continuous treatment daily for 4 days four times a day at 2 hrs interval measured on 8th day post-infection; format: functional, organism-based
[5] = system: Encephalomyocarditis virus; assay: Antiviral activity against Encephalomyocarditis virus infected in CF-1 mouse assessed as host survival time ratio at 250 mg/kg, sc administered 28, 22, 2 hrs before and 2 hrs after virus inoculation; format: functional; conditions: route subcutaneous
[6] = system: Human alphaherpesvirus 1; assay: as §1, with “suppression of ulcerated zoster-like lesions development” for “decrease in lesion score”; format: functional, organism-based
[7] = system: Human alphaherpesvirus 1; assay: In vivo antiviral activity against Herpesvirus hominis type 1 infected in po dosed white mouse assessed as suppression of raised, blister-like lesions; format: functional, organism-based
[8] = system: Encephalomyocarditis virus; assay: Antiviral activity against Encephalomyocarditis virus infected in CF-1 mouse assessed as host survival time ratio at 250 mg/kg, po administered via gavage as single dose at 22 to 28 hrs before virus inoculation; format: functional
[9] = system: Semliki Forest virus; assay: Antiviral activity against Semliki forest virus infected in mouse; format: functional, organism-based
[10] = system: Venezuelan equine encephalitis virus; assay: Antiviral activity against Venezuelan equine encephalitis virus infected in po dosed monkey assessed as reduction in viremia; format: functional, organism-based
[11] = system: Encephalomyocarditis virus; assay: Antiviral activity against Encephalomyocarditis virus infected in CF-1 mouse assessed as host survival time ratio at 50 mg/kg, sc administered 28, 22, 2 hrs before and 2 hrs after virus inoculation; format: functional; conditions: route subcutaneous
[12] = system: Encephalomyocarditis virus; assay: Antiviral activity against Encephalomyocarditis virus infected in CF-1 mouse assessed as host survival time ratio at 10 mg/kg, sc administered 28, 22, 2 hrs before and 2 hrs after virus inoculation; format: functional; conditions: route subcutaneous
[13] = system: Encephalomyocarditis virus; assay: Antiviral activity against Encephalomyocarditis virus infected in CF-1 mouse assessed as host survival time ratio at 50 mg/kg, po administered via gavage at 28, 22, 2 hrs before and 2 hrs after virus inoculation; format: functional
[14] = system: Vaccinia virus; assay: Antiviral activity against Vaccinia virus infected in mouse; format: functional, organism-based; conditions: Orthopoxvirus vaccinia
[15] = system: Encephalomyocarditis virus; assay: Antiviral activity against Encephalomyocarditis virus infected in CF-1 mouse assessed as host survival time ratio at 250 mg/kg, sc administered as single dose at 22 hrs before virus inoculation; format: functional; conditions: route subcutaneous
[16] = system: Influenza A virus; assay: Antiviral activity against Influenza A virus A0 (Pr8) infected in mouse; format: functional, organism-based
[17] = system: Influenza A virus; assay: Antiviral activity against Influenza A virus A2 Jap/305 infected in mouse; format: functional, organism-based

Row | Compound | Activity [1] | Activity [2] | log(activity) [3] | inhibition [4] | Ratio [5] | inhibition [6] | inhibition [7] | Ratio [8] | Activity [9] | inhibition [10] | Ratio [11] | Ratio [12] | Ratio [13] | Activity [14] | Ratio [15] | Activity [16] | Activity [17]
1 | CN(C)CC(=O)c1ccc2oc3ccc(C(=O)CN(C)C)cc3c2c1.Cl | Active | Active | 2.5 | Active | 2 | inactive | inactive | 2.2 | Active | Active | 1.64 | 1.13 | 1.8 | Active |  |  | 
2 | CCN(CC)CCCOc1ccc2oc3ccc(OCCCN(CC)CC)cc3c2c1 |  |  |  |  |  |  |  | 0.92 |  |  | 0.88 | 0.98 | 0.98 |  | 1.47 |  | 
3 | Cl.O=C(CN1CCCCC1)c1ccc2oc3ccc(C(=O)CN4CCCCC4)cc3c2c1 |  |  |  |  | 2.41 |  |  | 1.41 |  |  | 1.12 | 1.11 | 0.87 |  |  |  | 
4 | CN(C)CCOc1ccc2sc3ccc(OCCN(C)C)cc3c2c1.Cl |  |  |  |  | 0.91 |  |  | 1.06 |  |  | 1.13 | 1.09 | 0.98 |  |  |  | 
5 | Cl.c1cc2sc3ccc(OCCCN4CCCCC4)cc3c2cc1OCCCN1CCCCC1 |  |  |  |  | 0.77 |  |  | 1.06 |  |  | 1.94 | 1.34 | 0.98 |  |  |  | 
6 | Cl.O=C(CCCN1CCC(Cc2ccccc2)CC1)c1ccc2oc3ccc(C(=O)CCCN4CCC(Cc5ccccc5)CC4)cc3c2c1 |  |  |  |  |  |  |  | 0.98 |  |  | 1.7 | 1.27 | 1.07 |  | 1.82 |  | 
7 | CC1CCN(CCCC(=O)c2ccc3sc4ccc(C(=O)CCCN5CCC(C)CC5)cc4c3c2)CC1 |  |  |  |  | 1.69 |  |  | 1.1 |  |  | 1.84 | 1.22 | 1.06 |  |  |  | 
8 | CCn1c2ccc(OCCCN(C)C)cc2c2cc(OCCCN(C)C)ccc21.Cl |  |  |  |  | 0.52 |  |  | 0.88 |  |  | 1.1 | 0.92 | 0.9 |  |  |  | 
9 | CCN(CC)CCOc1ccc2c(c1)c1cc(OCCN(CC)CC)ccc1n2CC.Cl |  |  |  |  | 0.85 |  |  | 0.92 |  |  | 1.13 | 1.05 | 0.87 |  |  |  | 
10 | CN(C)CC(=O)c1ccc2sc3ccc(C(=O)CN(C)C)cc3c2c1.Cl | Active | Active | 2.5 | Active | 2.29 | inactive | inactive | 2.29 | Active | Active | 2.29 | 1.1 | 1.75 | Active |  | Active | Active
